Measurements: the NIST ThermoML archive (doi:10.1016/j.jct.2016.03.026)
Several values for one entry are separate records, joined by “and”; a condition that tells them apart may be missing. Equal values may be shown once. ± gives the expanded uncertainty stated by the source.

Assay: xn = mol fraction of the nth substance listed
Settings: Fluid (supercritical or subcritical phases), Frequency=5 MHz, Pulse-echo method

O=C=O [carbon dioxide] + CO
Settings	speed of sound
298.13 K, 40050 kPa, x1 = 0.7534	817.8 ± 1.1 m/s
298.13 K, 44960 kPa, x1 = 0.925	802 ± 1.1 m/s
298.13 K, 44980 kPa, x1 = 0.925	802.5 ± 1.1 m/s
298.13 K, 45000 kPa, x1 = 0.8502	812.9 ± 1.1 m/s
298.13 K, 45000 kPa, x1 = 0.925	803.5 ± 1.1 m/s
298.13 K, 45020 kPa, x1 = 0.7534	848.9 ± 1.1 m/s
298.13 K, 45020 kPa, x1 = 0.925	803 ± 1.1 m/s
298.13 K, 49980 kPa, x1 = 0.925	832.4 ± 1.1 m/s and 833.5 ± 1.1 m/s
298.13 K, 49990 kPa, x1 = 0.925	832.8 ± 1.1 m/s
298.13 K, 50010 kPa, x1 = 0.925	833.6 ± 1.1 m/s
298.13 K, 50070 kPa, x1 = 0.7534	878.2 ± 1.2 m/s
298.13 K, 50080 kPa, x1 = 0.8502	843 ± 1.1 m/s
298.13 K, 54890 kPa, x1 = 0.7534	904.5 ± 1.2 m/s
298.13 K, 54910 kPa, x1 = 0.8502	869.9 ± 1.1 m/s
298.13 K, 54940 kPa, x1 = 0.925	860.9 ± 1.1 m/s
298.13 K, 54950 kPa, x1 = 0.925	860.2 ± 1.1 m/s
298.13 K, 54970 kPa, x1 = 0.925	861.2 ± 1.1 m/s
298.13 K, 55000 kPa, x1 = 0.925	860.7 ± 1.1 m/s
298.13 K, 59950 kPa, x1 = 0.8502	896.4 ± 1.2 m/s
298.13 K, 59970 kPa, x1 = 0.925	886.8 ± 1.2 m/s
298.13 K, 60000 kPa, x1 = 0.925	887 ± 1.2 m/s
298.13 K, 60010 kPa, x1 = 0.925	887.7 ± 1.2 m/s
298.13 K, 60020 kPa, x1 = 0.925	887.7 ± 1.2 m/s
298.13 K, 60230 kPa, x1 = 0.7534	932.1 ± 1.2 m/s
298.13 K, 64680 kPa, x1 = 0.7534	953.8 ± 1.2 m/s
298.13 K, 64950 kPa, x1 = 0.925	912 ± 1.2 m/s
298.13 K, 64960 kPa, x1 = 0.925	911.8 ± 1.2 m/s
298.13 K, 64990 kPa, x1 = 0.925	912.4 ± 1.2 m/s
298.13 K, 65010 kPa, x1 = 0.925	911.9 ± 1.2 m/s
298.13 K, 65100 kPa, x1 = 0.8502	922 ± 1.2 m/s
298.13 K, 69930 kPa, x1 = 0.8502	944.8 ± 1.2 m/s
298.13 K, 69960 kPa, x1 = 0.925	935.2 ± 1.2 m/s
298.13 K, 69970 kPa, x1 = 0.925	935.8 ± 1.2 m/s
298.13 K, 69980 kPa, x1 = 0.925	935.3 ± 1.2 m/s
298.13 K, 70000 kPa, x1 = 0.925	936 ± 1.2 m/s
298.13 K, 70030 kPa, x1 = 0.7534	978.8 ± 1.3 m/s
298.13 K, 74960 kPa, x1 = 0.925	957.7 ± 1.2 m/s
298.13 K, 74970 kPa, x1 = 0.925	957.9 ± 1.2 m/s and 958.4 ± 1.2 m/s
298.13 K, 75000 kPa, x1 = 0.925	958.5 ± 1.2 m/s
298.13 K, 75120 kPa, x1 = 0.8502	968.2 ± 1.3 m/s
298.13 K, 75550 kPa, x1 = 0.7534	1003.2 ± 1.3 m/s
298.13 K, 79950 kPa, x1 = 0.925	979.9 ± 1.3 m/s
298.13 K, 79970 kPa, x1 = 0.925	979.7 ± 1.3 m/s
298.13 K, 79990 kPa, x1 = 0.8502	989 ± 1.3 m/s
298.13 K, 79990 kPa, x1 = 0.925	979.4 ± 1.3 m/s
298.13 K, 80530 kPa, x1 = 0.7534	1024.4 ± 1.3 m/s
298.13 K, 89880 kPa, x1 = 0.8502	1029.2 ± 1.3 m/s
298.13 K, 89960 kPa, x1 = 0.925	1019.7 ± 1.3 m/s
298.13 K, 89980 kPa, x1 = 0.925	1020.4 ± 1.3 m/s
298.13 K, 90000 kPa, x1 = 0.925	1020 ± 1.3 m/s and 1020.4 ± 1.3 m/s
298.13 K, 90430 kPa, x1 = 0.7534	1064.1 ± 1.4 m/s
298.13 K, 99830 kPa, x1 = 0.7534	1098.9 ± 1.4 m/s
298.13 K, 99970 kPa, x1 = 0.925	1057.9 ± 1.4 m/s
298.13 K, 99990 kPa, x1 = 0.925	1057.5 ± 1.4 m/s
298.13 K, 100010 kPa, x1 = 0.8502	1067.3 ± 1.4 m/s
298.13 K, 100010 kPa, x1 = 0.925	1057.5 ± 1.4 m/s
298.13 K, 100040 kPa, x1 = 0.925	1057.3 ± 1.4 m/s
298.13 K, 109890 kPa, x1 = 0.8502	1102.7 ± 1.4 m/s
298.13 K, 109950 kPa, x1 = 0.925	1092.7 ± 1.4 m/s
298.13 K, 109980 kPa, x1 = 0.925	1093.2 ± 1.4 m/s
298.13 K, 109990 kPa, x1 = 0.925	1092.8 ± 1.4 m/s and 1093.2 ± 1.4 m/s
298.13 K, 110320 kPa, x1 = 0.7534	1136.1 ± 1.5 m/s
298.13 K, 119500 kPa, x1 = 0.8502	1135.1 ± 1.5 m/s
298.13 K, 119930 kPa, x1 = 0.925	1126 ± 1.4 m/s
298.13 K, 119960 kPa, x1 = 0.925	1126.1 ± 1.4 m/s
298.13 K, 119990 kPa, x1 = 0.925	1125.8 ± 1.4 m/s
298.13 K, 120000 kPa, x1 = 0.925	1126 ± 1.4 m/s
298.13 K, 120120 kPa, x1 = 0.7534	1168.5 ± 1.5 m/s
298.13 K, 129960 kPa, x1 = 0.925	1157.1 ± 1.5 m/s
298.13 K, 129970 kPa, x1 = 0.925	1157.2 ± 1.5 m/s and 1157.6 ± 1.5 m/s
298.13 K, 130000 kPa, x1 = 0.925	1157.5 ± 1.5 m/s
298.13 K, 139110 kPa, x1 = 0.7534	1226.8 ± 1.6 m/s
298.13 K, 139980 kPa, x1 = 0.925	1186.8 ± 1.5 m/s and 1187.3 ± 1.5 m/s
298.13 K, 139990 kPa, x1 = 0.925	1187.1 ± 1.5 m/s
298.13 K, 140030 kPa, x1 = 0.925	1187.4 ± 1.5 m/s
298.13 K, 140060 kPa, x1 = 0.8502	1198.2 ± 1.5 m/s
298.13 K, 149950 kPa, x1 = 0.925	1215.3 ± 1.6 m/s and 1215.7 ± 1.6 m/s
298.13 K, 149960 kPa, x1 = 0.925	1215.5 ± 1.6 m/s
298.13 K, 149990 kPa, x1 = 0.925	1215.1 ± 1.6 m/s
298.13 K, 159590 kPa, x1 = 0.7534	1284.3 ± 1.6 m/s
298.13 K, 159960 kPa, x1 = 0.925	1242.8 ± 1.6 m/s
298.13 K, 159970 kPa, x1 = 0.925	1242.8 ± 1.6 m/s
298.13 K, 159980 kPa, x1 = 0.925	1242.2 ± 1.6 m/s
298.13 K, 159990 kPa, x1 = 0.925	1242.6 ± 1.6 m/s
298.13 K, 160550 kPa, x1 = 0.8502	1255.2 ± 1.6 m/s
298.13 K, 169970 kPa, x1 = 0.925	1268.9 ± 1.6 m/s
298.13 K, 169980 kPa, x1 = 0.925	1268.9 ± 1.6 m/s
298.13 K, 169990 kPa, x1 = 0.925	1268.1 ± 1.6 m/s
298.13 K, 170010 kPa, x1 = 0.925	1268.7 ± 1.6 m/s
298.13 K, 178270 kPa, x1 = 0.8502	1301.3 ± 1.7 m/s
298.13 K, 179990 kPa, x1 = 0.925	1293.2 ± 1.6 m/s
298.13 K, 180020 kPa, x1 = 0.925	1293.8 ± 1.6 m/s and 1294 ± 1.6 m/s
298.13 K, 180060 kPa, x1 = 0.925	1294.1 ± 1.6 m/s
298.13 K, 180370 kPa, x1 = 0.7534	1338.1 ± 1.7 m/s
298.13 K, 189940 kPa, x1 = 0.925	1316.8 ± 1.7 m/s
298.13 K, 189950 kPa, x1 = 0.925	1317.9 ± 1.7 m/s
298.13 K, 189970 kPa, x1 = 0.925	1317.8 ± 1.7 m/s
298.13 K, 190010 kPa, x1 = 0.925	1317.9 ± 1.7 m/s
298.14 K, 44940 kPa, x1 = 0.9803	798 ± 1.1 m/s
298.14 K, 50050 kPa, x1 = 0.9803	829.6 ± 1.1 m/s
298.14 K, 54980 kPa, x1 = 0.9803	857.8 ± 1.1 m/s
298.14 K, 60140 kPa, x1 = 0.9803	885.4 ± 1.2 m/s
298.14 K, 64990 kPa, x1 = 0.9803	909.9 ± 1.2 m/s
298.14 K, 70210 kPa, x1 = 0.9803	935 ± 1.2 m/s
298.14 K, 75300 kPa, x1 = 0.9803	958.1 ± 1.2 m/s
298.14 K, 80240 kPa, x1 = 0.9803	979.6 ± 1.3 m/s
298.14 K, 89800 kPa, x1 = 0.9803	1018.7 ± 1.3 m/s
298.14 K, 100450 kPa, x1 = 0.9803	1059.1 ± 1.4 m/s
298.14 K, 109890 kPa, x1 = 0.9803	1092.5 ± 1.4 m/s
298.14 K, 120160 kPa, x1 = 0.9803	1126.5 ± 1.4 m/s
298.14 K, 130400 kPa, x1 = 0.9803	1158.4 ± 1.5 m/s
298.14 K, 139810 kPa, x1 = 0.9803	1185.8 ± 1.5 m/s
298.14 K, 150170 kPa, x1 = 0.9803	1215.7 ± 1.6 m/s
298.14 K, 160470 kPa, x1 = 0.9803	1243.6 ± 1.6 m/s
304.19 K, 24950 kPa, x1 = 0.97	621 ± 0.9 m/s
304.19 K, 29960 kPa, x1 = 0.97	668.7 ± 1 m/s
304.19 K, 34880 kPa, x1 = 0.97	709.6 ± 1 m/s
304.19 K, 39930 kPa, x1 = 0.97	747.2 ± 1 m/s
304.19 K, 44970 kPa, x1 = 0.97	781.3 ± 1.1 m/s
304.19 K, 50020 kPa, x1 = 0.97	812.8 ± 1.1 m/s
304.19 K, 54970 kPa, x1 = 0.97	841.5 ± 1.1 m/s
304.19 K, 59970 kPa, x1 = 0.97	868.6 ± 1.1 m/s
